# Measurements reported in patent US20030159171A1, “Novel plant genes and uses thereof” (Syngenta Participations AG, priority 1999, published 2003).
# Tested on: sugarbeet NIM-like clone (SEQ ID NO:39 and 63)
# Experiment: Northern analysis of sugarbeet NIM-like clone expression after BTH treatment
# Format: in vivo, Beta vulgaris
# Conditions: after 100 μM or 300 μM BTH treatment
compound,measurement,value
"CSC(=O)c1cccc2nnsc12 [BTH, benzo(1,2,3)thiadiazole-7-carbothioic acid S-methyl ester]",increase of expression of the sugarbeet NIM-like clone (Northern data),three to seven
